Activity and IC50 data for 11 molecules are collected here from ChEMBL document CHEMBL2396627, “Novel artemisinin derivatives with potential usefulness against liver/colon cancer and viral hepatitis” (Bioorg Med Chem, 2013).

Active and inactive are the calls of the source. No cut-off for these calls is given here.

The subject of data set [1] is EBTr. Briefly: Antiviral activity against Bovine viral diarrhea virus Oregon C24V genotype 1 […] infected in bovine EBTr cells assesed as inhibition of virus-induced cytopathic effect at 20 to 100 uM after 72 hrs by MTT assay. It is filed as functional, cell-based. The conditions noted are these: Bovine viral diarrhea virus strain Oregon C24V. For orientation: Damage to the host cells serves as the signal in cytopathic effect assays.

Data set [2] in a line: Acute toxicity in bovine EBTr cells infected with BVDV assessed as reduction in cell viability at 50 uM after 72 hrs. As to conditions: cattle. The data set is classed as cell-based, Bos taurus.
Data set [3] has as its system Bovine viral diarrhea virus strain Oregon C24V. Kind of data set: Antiviral activity against Bovine viral diarrhea virus Oregon C24V genotype 1 […] assessed as reduction in viral RNA release at 50 uM by RT-PCR analysis. It is filed as functional.
A short description of data set [4]: Cytotoxicity against human HepG2(2.2.15) cells assessed as reduction in cell viability at 0.1 uM measured on day 21 by natural Red test. It is filed as cell-based. As to conditions: hepg2 2.2.15, 0.1 µM.
For data set [5], the system named is SK-HEP1. Briefly: Cytotoxicity against human SKHEP1 cells after 72 hrs by formazan test. The conditions noted are these: for IC50: SK-HEP1, 72 h. The data set is classed as functional, cell-based.
Data set [6] deals with HepG2. Kind of data set: Cytotoxicity against human HepG2 cells after 72 hrs by formazan test. It is filed as functional, cell-based. The conditions noted are these: for IC50: HepG2, 72 h.
Data set [7] is described as follows: Acute toxicity in bovine EBTr cells at 50 uM after 72 hrs. It is filed as cell-based, Bos taurus. The conditions noted are these: cattle.
Data set [8] is described as follows: (§1) Cytotoxicity against human LS 174T cells after 72 hrs by formazan test. The conditions noted are these: LS174T. It is filed as functional, cell-based.
For data set [9], the system named is EBTr. Kind of data set: Antiviral activity against Bovine viral diarrhea virus Oregon C24V genotype 1 […] infected in bovine EBTr cells assesed as inhibition of virus-induced cytopathic effect at 50 uM after 72 hrs by MTT assay. The data set is classed as functional, cell-based. The conditions noted are these: Bovine viral diarrhea virus strain Oregon C24V.

Data set [10] in a line: Cytotoxicity against bovine EBTr cells up to 100 uM after 72 hrs by MTT assay. It is filed as cell-based, Bos taurus. The conditions noted are these: cattle. A general note: Tetrazolium assays rely on reduction of a dye to a coloured formazan, in cell work by metabolically active cells.
A short description of data set [11]: Cytotoxicity against bovine EBTr cells at 20 to 100 uM after 72 hrs by MTT assay. It is filed as cell-based, Bos taurus. As to conditions: cattle.
Data set [12] concerns LS174T. The description is as §1. It is filed as functional, cell-based.
A short description of data set [13]: Cytotoxicity against human HepG2(2.2.15) cells assessed as reduction in cell viability at 1 uM measured on day 21 by natural Red test. It is filed as cell-based. As to conditions: hepg2 2.2.15, 1 µM.
Data set [14] can be described thus: Acute toxicity in human LS 174T cells at IC50 after 6 hrs by formazan test. It is filed as cell-based. The conditions noted are these: ls174t.
In data set [15] the test system is SK-HEP1. Briefly: Acute toxicity in human SKHEP1 cells at IC50 after 6 hrs by formazan test. It is filed as cell-based. The conditions noted are these: sk-hep1, 6 h.
For data set [16], the system named is HepG2. Briefly: Acute toxicity in human HepG2 cells at IC50 after 6 hrs by formazan test. The data set is classed as cell-based. As to conditions: hepg2, 6 h.
Data set [17] in a line: Cytotoxicity against human HepG2(2.2.15) cells assessed as reduction in cell viability at 0.1 to 1 uM measured on day 21 by natural Red test. The conditions noted are these: hepg2 2.2.15, 1 µM. It is filed as cell-based.
In data set [18] the test system is Hepatitis B virus. Kind of data set: Antiviral activity against Hepatitis B virus infected in human HepG2(2.2.15) cells assessed as reduction in HBV-DNA release at < 0.1 uM measured on day 21. The data set is classed as functional. The arrangement: scale not given: the % may be the effect or the level left.
Data set [19] deals with EBTr. Briefly: Antiviral activity against Bovine viral diarrhea virus Oregon C24V genotype 1 […] infected in bovine EBTr cells assessed as inhibition of virus-induced cytopathic effect at 50 uM incubated 1 hr prior to hemin addition measured after 72 hrs. It is filed as functional, cell-based. As to conditions: Bovine viral diarrhea virus strain Oregon C24V.
For data set [20], the system named is EBTr. Briefly: Antiviral activity against Bovine viral diarrhea virus Oregon C24V genotype 1 […] infected in bovine EBTr cells assessed as inhibition of virus-induced cytopathic effect at 50 uM incubated 1 hr prior to ferrosanol addition measured after 72 hrs. It is filed as functional, cell-based. The conditions noted are these: Bovine viral diarrhea virus strain Oregon C24V.

For data set [21], the system named is SK-HEP1. Kind of data set: Cytotoxicity against human SKHEP1 cells after 72 hrs in presence of ferrosanol. The data set is classed as functional, cell-based.
Data set [22] has as its system SK-HEP1. Briefly: Cytotoxicity against human SKHEP1 cells incubated for 1 hr prior to hemin addition measured after 72 hrs. The data set is classed as functional, cell-based.
Data set [23] relates to SK-HEP1. Kind of data set: Cytotoxicity against human SKHEP1 cells incubated for 1 hr prior to ferrosanol addition measured after 72 hrs. It is filed as functional, cell-based.
The subject of data set [24] is SK-HEP1. Briefly: Cytotoxicity against human SKHEP1 cells after 72 hrs in presence of hemin. The data set is classed as functional, cell-based.

In general, IC50 refers to the concentration needed to halve the response being measured. `C[C@H]1[C@@H](OC(=O)C(F)(F)C(F)(F)F)O[C@@H]2O[C@@]3(C)CC[C@H]4[C@H](C)CC[C@@H]1[C@@]24OO3`: the Activity entry in data set [1] was “Dose-dependent effect”; in [2], “Non-toxic”; in data set [4], “Toxic”; in data set [7], “Non-toxic”; in [10], “Non-toxic”. In addition, in data set [3], the outcome was inactive. Besides, the IC50 in [5] is 150 µM; in data set [6], 200 µM; in data set [8], more than 200 µM. In addition, the outcome in data set [9] was Active.
Turning to `C[C@H]1[C@@H](O)O[C@@H]2O[C@@]3(C)CC[C@H]4[C@H](C)CC[C@@H]1[C@@]24OO3` [ARTENIMOL], the Activity result is “Toxic” in [11]; “Toxic” in data set [2]; “Dose-dependent effect” in data set [5]; “Dose-dependent effect” in data set [6]; “Non-toxic” in data set [7]; “Dose-dependent effect” in data set [12]. Further, the Activity result in data set [13] is given as “Toxic”. Besides, the result in data set [1], in [3] and in data set [9] was Active. In addition, the values for the IC50 in data set [5], in [6] and in data set [8] were 30 µM, 70 µM and 120 µM, respectively.
As to `C[C@H]1[C@@H](OC(=O)C(C)(C)C)O[C@@H]2O[C@@]3(C)CC[C@H]4[C@H](C)CC[C@@H]1[C@@]24OO3`, the Activity result in [11] is given as “Toxic”; in data set [14] it was “Non-toxic”; in data set [2], “Toxic”; in data set [15], “Non-toxic”; in data set [7], “Non-toxic”; in [16], “Non-toxic”. Also, the Activity result in data set [13] is “Toxic”. The result in [1] and in data set [3] was Active. Moreover, the IC50 in data set [5] turned out to be 9 µM; in [6], 40 µM; in data set [8], 70 µM. Besides, in data set [9], the outcome was inactive.
As to `CC1=CO[C@@H]2O[C@]3(C)CC[C@H]4[C@H](C)CC[C@@H]1[C@@]24OO3` [ANHYDRODIHYDROARTEMISININ], the Activity entry in data set [17] is “Toxic”; in [18] it was 50%; in data set [1], “Dose-dependent effect”; in data set [2], “Non-toxic”; in data set [7], “Non-toxic”; in [10], “Non-toxic”. The result in data set [3], in [19], in data set [9] and in data set [20] was Active. The values for the IC50 in [5], in data set [6] and in data set [8] were 30 µM, 200 µM and more than 200 µM, respectively.
In the case of `CCC(C)O[C@H]1O[C@@H]2O[C@@]3(C)CC[C@H]4[C@H](C)CC[C@@H]([C@H]1C)[C@@]24OO3` (some centres not stated), the Activity entry in [11] is listed as “Toxic”; in data set [17], “Toxic”; in [14], “Non-toxic”; in [18], 50%; in [2] it was “Toxic”; in [15] it was “Non-toxic”. In addition, the Activity entry in data set [7] and in [16] was “Non-toxic” throughout. The outcome in [1] and in [3] was Active. The figures for the IC50 in data set [5], in data set [6] and in [8] were 10 µM, 50 µM and 70 µM, respectively. Also, in data set [9], the outcome was inactive.
For `CC(=O)O[C@H]1O[C@@H]2O[C@@]3(C)CC[C@H]4[C@H](C)CC[C@@H]([C@H]1C)[C@@]24OO3`, the Activity entry in data set [14] was “Non-toxic”; in data set [1] it was “Dose-dependent effect”; in data set [2] it was “Non-toxic”; in [15], “Non-toxic”; in data set [4] it was “Toxic”; in [7], “Non-toxic”. The Activity result in data set [16] and in [10] was “Non-toxic” in each case. Further, the outcome in data set [3] and in data set [9] was Active. The IC50 is 4 µM in data set [5], 60 µM in data set [6] and 70 µM in [8].
In the case of `CCCC(=O)O[C@H]1O[C@@H]2O[C@@]3(C)CC[C@H]4[C@H](C)CC[C@@H]([C@H]1C)[C@@]24OO3`, the Activity entry in data set [14], in data set [2], in data set [15], in data set [7], in data set [16] and in data set [10] was “Non-toxic” throughout. Further, the Activity entry in [13] is reported as “Toxic”. Further, the outcome in [1] and in data set [9] was Active. In addition, in [3], the result was inactive. The IC50 in data set [5] came to 2 µM; in data set [6] it was 100 µM; in data set [8] it was 130 µM.
With `C[C@H]1[C@@H](OC(=O)N(C)C)O[C@@H]2O[C@@]3(C)CC[C@H]4[C@H](C)CC[C@@H]1[C@@]24OO3`, the Activity entry was “Dose-dependent effect” in data set [1]; “Non-toxic” in [2]; “Toxic” in [4]; “Non-toxic” in data set [7]; “Non-toxic” in data set [10]. Besides, the result in data set [3] was inactive. Also, the IC50 in data set [5] is 25 µM; in data set [6], 70 µM; in [8], 100 µM. Moreover, the result in [9] was Active.
In the case of `CCCC(CCC)C(=O)O[C@H]1O[C@@H]2O[C@@]3(C)CC[C@H]4[C@H](C)CC[C@@H]([C@H]1C)[C@@]24OO3`, the Activity entry is on record as “Toxic” in data set [11]; “Non-toxic” in data set [14]; “Toxic” in [2]; “Non-toxic” in data set [15]; “Non-toxic” in data set [7]; “Non-toxic” in [16]. In data set [13], the Activity result was “Toxic”. For the same molecule, the result in data set [1] and in [9] was inactive. Besides, the result in data set [21], in data set [3], in data set [22], in data set [23] and in data set [24] was Active. The IC50 came to 1 µM in data set [5], 3 µM in data set [6] and 5 µM in data set [8].
In the case of `C[C@@H]1CC[C@H]2[C@@H](C)C(=O)O[C@@H]3O[C@@]4(C)CC[C@@H]1[C@]32OO4` [ARTEMISININ], the IC50 in data set [5], in [6] and in data set [8] was more than 200 µM in each case.
Turning to `C[C@H]1[C@H](OC(=O)CCC(=O)O)O[C@@H]2O[C@@]3(C)CC[C@H]4[C@H](C)CC[C@@H]1[C@@]24OO3` [ARTESUNATE], the Activity entry is “Toxic” in data set [14]; “Toxic” in data set [15]; “Dose-dependent effect” in data set [5]; “Dose-dependent effect” in data set [6]; “Dose-dependent effect” in data set [12]; “Toxic” in data set [16]. In addition, the result in data set [21], in data set [22], in [23] and in data set [24] was Active. Also, the IC50 in data set [5] is 10 µM; in data set [6] it was 20 µM; in data set [8], 10 µM.
